Test results reported in patent US20210138080A1, “CONJUGATES” (GLYKOS BIOMEDICAL OY, priority 2018, published 2021).
“Also recorded” adds a separate entry of the source. Where two headings read alike, the source gives them in different places.

What was measured:
[1] = system: egg embryos; experiment: in vivo CAM trial: embryo viability (toxicity)
Method: (§1) The study was performed by Inovotion SAS (La Tronche, France). Fertilized chicken eggs were incubated at 37.5° C. with 50% relative humidity for 9 days (E9), when the chorioallantoic membrane (CAM) was dropped down by drilling a small hole through the eggshell into the air sac, and a 1 cm^2 window was cut in the eggshell above the CAM. The NCI-N87 cell line was cultivated in RPMI-1640 medium supplemented with 10% FBS and 1% penicillin/streptomycin. On day E9, cells were detached by trypsin, washed with complete medium and suspended in graft medium. An inoculum of 2 million cells was added onto the CAM of each egg. […] Living grafted eggs were randomized into groups and were then treated on day E10, E11.5, E13, E14.5 and E17 (five doses) by dropping 100 μl of vehicle (PBS) and compounds (alone or in combination) onto the tumor. On day 18 (E18) the upper portion of the CAM was removed, washed in PBS and then directly transferred in PFA (fixation for 48 h). The tumors were then carefully cut away from normal CAM tissue and weighed. Eggs were checked at each treatment time, or at least every two days, for viability during the study. At the end of the study, the number of dead embryos was counted and combined with the observation of eventual visible macroscopic abnormalities (observation done during the sample collection) to evaluate the toxicity.

[2] = system: NCI-N87 cancer cell line tumors; experiment: in vivo trial, cancer cell xenografts on chicken egg chorioallantoic membrane (CAM): tumor weight; conditions: for Mean tumor size: five doses E10-E17, 1.5 mg/kg pembrolizumab, 1.8 mg/kg 33DFTG, weighed E18, PBS control 30.6
Method: as §1

[3] = target: T1, Galectin-3 (Homo sapiens, UniProt P17931); conditions: SKOV-3 cells, 2 μM 33DFTG for 3 days; Galectin-3 10 μg/ml; control treatment 1940
Method: (§2) After the incubation, cells were stained with Alexa Fluor 488-conjugated human recombinant Galectin-1, and Alexa Fluor 488-conjugated human recombinant Galectin-3 (both from Abcam, Cambridge, United Kingdom; and both at 10 μg/ml) for 45 minutes at +4° C. Cells were washed and stored on ice in the dark until analysed by FACSAriaII flow cytometer.

[4] = target: T2, Galectin-1 (Homo sapiens, UniProt P09382); experiment: Alexa Fluor 488-Galectin-1 binding to SKOV-3 cells by FACS; assay type: cell-based
T2 construct: purchased Abcam, Cambridge, United Kingdom
Method: as §2

[5] = target: T2, Galectin-1; experiment: Alexa Fluor 488-Galectin-1 binding to HSC-2 cells by FACS; assay type: cell-based
Method: as §2
(§3) In parallel, untreated cells were cultured in normal cell culture medium. For flow cytometry analysis, cells were detached with trypsin, washed, and stained with AlexaFluor488-conjugated Galectin-1 and Galectin-3 proteins as above. FACS was performed as above.

[6] = target: T1, Galectin-3; conditions: HSC-2 cells, 2 μM 33DFTG for 2 days; control treatment 1247
Method: as §2, §3

T2 sequence (P09382 whole entry): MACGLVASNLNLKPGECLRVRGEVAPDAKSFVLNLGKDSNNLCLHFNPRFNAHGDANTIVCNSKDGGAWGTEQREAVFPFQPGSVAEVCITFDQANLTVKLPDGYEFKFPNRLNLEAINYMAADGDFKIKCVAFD
T1 sequence (P17931 whole entry): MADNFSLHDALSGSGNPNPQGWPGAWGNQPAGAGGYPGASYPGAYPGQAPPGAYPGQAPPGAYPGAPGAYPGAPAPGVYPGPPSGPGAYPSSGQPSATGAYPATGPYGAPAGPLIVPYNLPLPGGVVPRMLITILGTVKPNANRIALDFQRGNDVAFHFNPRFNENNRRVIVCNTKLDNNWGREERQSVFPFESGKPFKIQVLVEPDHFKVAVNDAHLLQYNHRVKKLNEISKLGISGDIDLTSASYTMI

| Compound | % alive ([1]; egg embryos at end of study, PBS control 81) | Mean tumor size [2] | tumor size / therapeutic efficacy compared to control group (in words) ([2]; repeated dose) | % alive ([1]; chicken, in vivo, 8 days) | Mean fluorescence intensity, Galectin-3 [3] | binding of Galectin-1 to the cells (in words) ([4]; 2 μM 33DFTG) | Mean fluorescence intensity, Galectin-1 ([4]; 2 μM 33DFTG for 3 days, Galectin-1 10 μg/ml, control treatment 439) | binding of Galectin-1 to the cells (in words) ([5]; 2 μM 33DFTG) | Mean fluorescence intensity, Galectin-1 ([5]; 2 μM 33DFTG for 2 days, control treatment 521) | Mean fluorescence intensity, Galectin-3 [6] |
| --- | --- | --- | --- | --- | --- | --- | --- | --- | --- | --- |
| Pembrolizumab: pembrolizumab (Keytruda, Merck) | 73% | 33.5 mg | neither pembrolizumab alone or 33DFTG alone showed significant difference | – | – | – | – | – | – | – |
| OC[C@H]1O[C@@H](S[C@@H]2O[C@H](CO)[C@H](O)[C@H](n3cc(-c4cccc(F)c4)nn3)[C@H]2O)[C@H](O)[C@@H](n2cc(-c3cccc(F)c3)nn2)[C@H]1O [33DFTG, 3,3′-dideoxy-3,3′-bis-[4-(3-fluorophenyl)-1H-1,2,3-triazol-1-yl]-1,1′-sulfanediyl-di-β-D-galactopyranoside] | – | 35.8 mg | – | 64% | 165 | effective inhibition; also recorded: clearly decreased | 186 | effective inhibition; also recorded: clearly decreased | 226 | 129 |
